Values after ≈ are worked out from the molar mass of the structure shown. Active and inactive are the calls of the source. The calls are words filed in the database; no cut-off is given here.
How the values were obtained:
[1] = Solubility of compound in pH 7.7 PBS buffer; assay type: physicochemical
Staphylococcus aureus [2] = assay: Antibacterial activity against methicillin-resistant pyruvate kinase deficient Staphylococcus aureus USA300 LAC at 0.15 to 25 uM incubated for 24 hrs under low pyruvate containing medium by resazurin dye based fluorescence assay; assay type: functional, organism-based; conditions: dose microM 0.15-25, time 24.0 hrs
Klebsiella pneumoniae [3] = assay: Synergistic antibacterial activity against Klebsiella pneumoniae ATCC 700603 assessed as FICI after 24 hrs in presence of colistin by checkerboard assay; assay type: functional
Acinetobacter baumannii [4] = assay: Synergistic antibacterial activity against Acinetobacter baumannii ATCC BAA-1605 assessed as FIC after 24 hrs in presence of colistin by checkerboard assay relative to colistin; assay type: functional
Enterococcus faecalis [5] = assay: Antibacterial activity against Enterococcus faecalis ATCC 51299 at 0.78 to 100 uM after 24 hrs by broth microdilution method; assay type: functional, organism-based; conditions: dose microM 0.78-100, time 24.0 hrs
[6] = Selectivity index, ratio of IC50 for cytotoxicity against human MRC5 cells to MIC90 for antibacterial activity against […] Staphylococcus aureus ATCC 700699; assay type: toxicity, cell-based; conditions: read-out: Selectivity Index
Staphylococcus aureus [7] = assay: Bactericidal activity against […] Staphylococcus aureus ATCC 700699 assessed as colony forming units at 5 fold MIC measured after 24 hrs by time kill assay; assay type: functional
Staphylococcus aureus [8] = assay: Antibacterial activity against […] Staphylococcus aureus ATCC 700699 after 24 hrs by broth microdilution method; assay type: functional
[9] = Solubility of compound in pH 7.7 DMSO:PBS solution; assay type: physicochemical; conditions: buffer
Cell membrane [10] = assay: Induction of cell membrane permeabilization in methicillin resistant Staphylococcus aureus ATCC 700699 at 5 fold MIC measured at 5 mins interval for 2 hrs by propidium iodide staining based fluorescence assay
Escherichia coli [11] = assay: Antimicrobial activity against Escherichia coli ATCC BAA 2469 after 24 hrs by broth microdilution assay; assay type: functional
Klebsiella pneumoniae [12] = assay: Antibacterial activity against Klebsiella pneumoniae ATCC 700603 after 24 hrs by broth microdilution method; assay type: functional
Staphylococcus aureus [13] = assay: Antibacterial activity against vancomycin-sensitive Staphylococcus aureus T144 infected in Balb/c mouse assessed as reduction in bacterial burden at 5 mg/kg applied topically measured after 12 days by colony counting method; assay type: functional, organism-based; conditions: time 12.0 day
Staphylococcus aureus [14] = assay: Antibacterial activity against methicillin-resistant Staphylococcus aureus USA300 LAC at 0.15 to 25 uM incubated for 24 hrs under low pyruvate containing medium by resazurin dye based fluorescence assay; assay type: functional, organism-based; conditions: dose microM 0.15-25, time 24.0 hrs
Pseudomonas aeruginosa [15] = assay: Antibacterial activity against Pseudomonas aeruginosa ATCC 27853 measured after 24 hrs by broth microdilution method; assay type: functional
Pseudomonas aeruginosa [16] = assay: Synergistic antibacterial activity against Pseudomonas aeruginosa ATCC 27853 assessed as FIC after 24 hrs in presence of colistin by checkerboard assay relative to test compound MIC; assay type: functional
Pseudomonas aeruginosa [17] = assay: Synergistic antibacterial activity against Pseudomonas aeruginosa ATCC 27853 assessed as FIC after 24 hrs in presence of colistin by checkerboard assay relative to colistin; assay type: functional
Staphylococcus aureus [18] = assay: Antibacterial activity against methicillin-resistant Staphylococcus aureus USA300 LAC at 0.15 to 25 uM incubated for 24 hrs under low glucose medium by resazurin dye based fluorescence assay; assay type: functional, organism-based; conditions: dose microM 0.15-25, time 24.0 hrs
[19] = Selectivity index, ratio of IC50 for cytotoxicity against human THP-1 cells to MIC90 for antibacterial activity against […] Staphylococcus aureus ATCC 700699; assay type: toxicity, cell-based; conditions: read-out: Selectivity Index
THP-1 = assay: Cytotoxicity against human THP-1 cells assessed as reduction in cell viability at >=12.5 uM measured after 48 hrs by resazurin dye based fluorescence assay; conditions: thp-1, 48 h
Escherichia coli [20] = assay: Synergistic antimicrobial activity against Escherichia coli ATCC BAA 2469 assessed as FIC after 24 hrs in presence of colistin by checkerboard assay relative to test compound MIC; assay type: functional
HepG2 = assay: Cytotoxicity against human HepG2 cells assessed as reduction in cell viability at >12.5 uM measured after 48 hrs by resazurin dye based fluorescence assay; conditions: hepg2, 48 h
Staphylococcus aureus [21] = assay: Antibacterial activity against vancomycin-sensitive Staphylococcus aureus T144 infected in Balb/c mouse peritonitis-sepsis model assessed as increase in survival at 5 mg/kg, ip measured for 48 hrs; assay type: functional, organism-based
Escherichia coli [22] = assay: Synergistic antimicrobial activity against Escherichia coli ATCC BAA 2469 assessed as FIC after 24 hrs in presence of colistin by checkerboard assay relative to colistin; assay type: functional
Enterococcus faecium = assay: Antibacterial activity against vancomycin-resistant Enterococcus faecium ATCC 35667 at 0.78 to 100 uM after 24 hrs by broth microdilution method; assay type: functional, organism-based; conditions: dose microM 0.78-100, time 24.0 hrs
Klebsiella pneumoniae [23] = assay: Synergistic antibacterial activity against Klebsiella pneumoniae ATCC 700603 assessed as FIC after 24 hrs in presence of colistin by checkerboard assay relative to test compound MIC; assay type: functional
Erythrocyte = assay: Hemolytic activity against sheep erythrocytes up to 100 uM measured after 1 hr; assay type: ADME, cell-based, Ovis aries
Staphylococcus aureus [24] = assay: Antibacterial activity against vancomycin-sensitive Staphylococcus aureus T144 infected in Balb/c mouse assessed as increase in wound healing at 5 mg/kg applied topically measured daily for 12 days by microscopic analysis; assay type: functional, organism-based; conditions: time 12.0 day
[25] = molecular target: Pyruvate kinase PKM (Oryctolagus cuniculus) (UniProt P11974); assay: Inhibition of rabbit muscle pyruvate kinase up to 12.5 uM using phosphoenolpyruvate as substrate measured for 5 mins by LDH-coupled assay; conditions: dose microM <=12.5, time 5.0 min
Staphylococcus aureus [26] = assay: Bactericidal activity against […] Staphylococcus aureus ATCC 700699 assessed as reduction in bacterial viability at 5 fold MIC incubated for 6 hrs by time kill assay relative to control; assay type: functional
Acinetobacter baumannii [27] = assay: Synergistic antibacterial activity against Acinetobacter baumannii ATCC BAA-1605 assessed as FIC after 24 hrs in presence of colistin by checkerboard assay relative to test compound MIC; assay type: functional
Cell membrane [28] = assay: Induction of cell membrane permeabilization in methicillin sensitive Staphylococcus aureus ATCC 29213 at 5 fold MIC measured after 30 mins by propidium iodide/DAPI staining based fluorescence microscopic analysis; assay type: subcellular
Enterococcus faecalis [29] = assay: Antibacterial activity against Enterococcus faecalis ATCC 29212 at 0.78 to 100 uM after 24 hrs by broth microdilution method; assay type: functional, organism-based; conditions: dose microM 0.78-100, time 24.0 hrs
[30] = tested on: Mycobacterium tuberculosis; assay: Antibacterial activity against Mycobacterium tuberculosis H37Rv at 0.78 to 100 uM after 5 days by resazurin dye based fluorescence assay; assay type: functional, organism-based; conditions: dose microM 0.78-100, time 5.0 day
Klebsiella pneumoniae [31] = assay: Synergistic antibacterial activity against Klebsiella pneumoniae ATCC 700603 assessed as FIC after 24 hrs in presence of colistin by checkerboard assay relative to colistin; assay type: functional
Acinetobacter baumannii [32] = assay: Antibacterial activity against Acinetobacter baumannii ATCC BAA-1605 at 0.78 to 100 uM after 24 hrs by broth microdilution method; assay type: functional, organism-based; conditions: dose microM 0.78-100, time 24.0 hrs
Staphylococcus aureus [33] = assay: Inhibition of Staphylococcus aureus ATCC 700699 N-terminal His6-tagged pyruvate kinase expressed in Escherichia coli NiCo21(DE3) at 12.5 uM using phosphoenolpyruvate as substrate measured for 5 mins by LDH-coupled assay
Staphylococcus aureus [34] = assay: Induction of cell lysis in Staphylococcus aureus ATCC 700699 assessed as decrease in turbidity at 8 fold MIC measured after 2 hrs by photometric method; assay type: functional, organism-based

Chain of Pyruvate kinase PKM (Oryctolagus cuniculus) (P11974 whole entry): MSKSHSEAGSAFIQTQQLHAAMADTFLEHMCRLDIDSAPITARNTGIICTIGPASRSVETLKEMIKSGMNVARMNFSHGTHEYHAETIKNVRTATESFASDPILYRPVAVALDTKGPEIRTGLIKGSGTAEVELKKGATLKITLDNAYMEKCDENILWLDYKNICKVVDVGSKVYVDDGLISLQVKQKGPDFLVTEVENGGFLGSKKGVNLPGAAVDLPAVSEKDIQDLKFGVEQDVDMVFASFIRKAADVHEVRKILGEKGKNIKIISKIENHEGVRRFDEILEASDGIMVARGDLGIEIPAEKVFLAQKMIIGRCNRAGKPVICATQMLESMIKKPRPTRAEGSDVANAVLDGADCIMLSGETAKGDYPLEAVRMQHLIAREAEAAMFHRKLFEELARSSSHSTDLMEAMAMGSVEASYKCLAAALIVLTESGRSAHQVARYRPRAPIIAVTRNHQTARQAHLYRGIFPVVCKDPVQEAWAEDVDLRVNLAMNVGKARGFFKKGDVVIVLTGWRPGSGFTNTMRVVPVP

SMILES: Clc1ccc2[nH]cc(-c3cccc(-c4c[nH]c5ccc(Cl)cc45)n3)c2c1
- solubility [1]: Insoluble
- Activity (Staphylococcus aureus [2]): Active
- fractional inhibitory concentration index (FICI) (Klebsiella pneumoniae [3]): <=0.25
- FIC (Acinetobacter baumannii [4]): 0.25
- Activity (Enterococcus faecalis [5]): Active
- selectivity ratio [6]: 32
- Activity (Staphylococcus aureus [7]): <10 CFU/ml
- MIC90 (Staphylococcus aureus [8]): 0.2 µM (≈ 0.0757 µg/mL)
- solubility [9]: Insoluble
- Activity (Cell membrane [10]): Active
- MIC (Escherichia coli [11]): > 100 µM
- MIC (Klebsiella pneumoniae [12]): > 100 µM
- Activity (Staphylococcus aureus [13]): Active
- Activity (Staphylococcus aureus [14]): Active
- MIC (Pseudomonas aeruginosa [15]): > 100 µM
- FIC (Pseudomonas aeruginosa [16]): <=0.0625
- FIC (Pseudomonas aeruginosa [17]): 0.5
- Activity (Staphylococcus aureus [18]): Active
- selectivity ratio [19]: 32
- Activity (THP-1): Toxic
- FIC (Escherichia coli [20]): <=0.0313
- Activity (HepG2): Toxic
- Activity (Staphylococcus aureus [21]): Active
- FIC (Escherichia coli [22]): 0.064
- Activity (Enterococcus faecium): Active
- FIC (Klebsiella pneumoniae [23]): <=0.125
- Activity (Erythrocyte): Non-Toxic
- Activity (Staphylococcus aureus [24]): Active
- inhibition [25]: inactive
- fold change (FC) (Staphylococcus aureus [26]): 10000
- FIC (Acinetobacter baumannii [27]): <=0.0625
- Activity (Cell membrane [28]): Active
- Activity (Enterococcus faecalis [29]): Active
- Activity [30]: Active
- FIC (Klebsiella pneumoniae [31]): 0.125
- Activity (Acinetobacter baumannii [32]): Active
- inhibition (Staphylococcus aureus [33]): inactive
- Activity (Staphylococcus aureus [34]): inactive

Reference: ChEMBL document CHEMBL4699592, “Nature-Inspired (di)Azine-Bridged Bisindole Alkaloids with Potent Antibacterial In Vitro and In Vivo Efficacy against Methicillin-Resistant Staphylococcus aureus” (J Med Chem, 2020)
